Assay results taken from PMC12985397 (Experimental cell research, 2009).

Biological target: histamine H1 receptor (H1R) (Homo sapiens, UniProt P35367)
Experiment: [3H]-thymidine incorporation in CHO-H1R cells
Format: cell-based

histamine H1 receptor (H1R), sequence (P35367 whole entry): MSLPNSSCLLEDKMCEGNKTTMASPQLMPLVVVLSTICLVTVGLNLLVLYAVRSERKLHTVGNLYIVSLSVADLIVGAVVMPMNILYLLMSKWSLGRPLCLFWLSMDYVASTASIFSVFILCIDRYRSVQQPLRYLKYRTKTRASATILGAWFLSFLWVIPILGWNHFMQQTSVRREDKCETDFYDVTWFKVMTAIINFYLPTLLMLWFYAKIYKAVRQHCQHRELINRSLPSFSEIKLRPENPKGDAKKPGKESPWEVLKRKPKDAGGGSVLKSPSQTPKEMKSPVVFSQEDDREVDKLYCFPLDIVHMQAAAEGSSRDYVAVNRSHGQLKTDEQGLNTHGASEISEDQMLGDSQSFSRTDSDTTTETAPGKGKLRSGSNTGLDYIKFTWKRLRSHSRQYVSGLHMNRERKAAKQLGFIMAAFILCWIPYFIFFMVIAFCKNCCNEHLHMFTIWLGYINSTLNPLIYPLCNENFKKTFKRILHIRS

## NCCc1cnc(-c2cccc(C(F)(F)F)c2)[nH]1 [H1, 2,3-trifluormetilfenilhistamine]
  EC50: 23.1 ± 3.6 µM
